The source of these data is patent US6355823B1 (Board of Regents, The University of Texas System, priority 1999, dated 2002).

The subject of data set [1] is rats with normal renal function. In words: Second 2-week study of 2′-PP in drinking water (FIG. 10, 11). Type of data set: in vivo, rat. The protocol:
Serum phosphate again decreased in a 2′-PP concentration-dependent manner immediately after its addition to the rats' drinking water. After 2 weeks on 2′-PP, serum phosphate was reduced to between 1.8 mM on 1 μM 2′-PP and 1.2 mM at 25 μM 2′-PP. […] This decrease in serum calcium may be related to a slight volume expansion. The rats receiving 5 μM or higher concentrations of 2′-PP drank 2-4 times more water than normal for the first 4 days of the study. After the first 4 days, water consumption returned to normal.

Data set [2] in a line: Radioactivity in urine, stool, kidney and liver after [3H]2′-PP. Type of data set: in vivo, rat. How it is done:
Ten rats with normal renal function were treated with varied amounts of [^3H]2′-PP by gavage for seven days. The 2′-PP was given once/day in a solution containing 270 mM sucrose and 10 mM Tris-Cl pH 7.4. Blood was withdrawn 1, 4, and 7 days from the start of the treatment and analyzed for serum phosphate and serum calcium, with the results shown in Table 1. A second, one-week trial was performed adding 2′-PP to the drinking water. Blood was withdrawn at 1, 4 and 7 days and assayed for calcium and phosphate. Dietary phosphorus was increased from 0.9% to 5% for one week, and the experiment repeated at the elevated dietary phosphorus with 2′-PP added to the drinking water for an additional two weeks. The amount of radioactivity in the urine and stool as examined. After two weeks, the animals were sacrificed, and the kidney and liver were examined for radioactivity.
After 4 weeks on 2′-PP, the rats were sacrificed and their kidneys and liver examined for radioactivity. […] A crude estimate of 2′-PP turnover time was calculated from the amount of radioactivity in the stool after administration of [^3H]2′-PP was discontinued; and the 2′-PP half-life was estimated as 12±1 hr.

The test system of data set [3] is rats on a 0.9% phosphorus diet. The data set can be described thus: Serum phosphate after withdrawal of 2′-PP (in vivo half-life). Also noted: species or system rat. How it is done:
Rats on a 0.9% phosphorus diet were given 10 μM [^3H]2′-PP in their water for 2 weeks. Serum phosphate and calcium were determined by spectrophotometric assays. Following the experimental period, 2′-PP was removed from the water, and the stool was examined for radioactivity at days 1, 3, 5 and 8, and serum phosphate was examined.
The apparent half-time to return to normal serum phosphate levels was approximately 3 days. […] During this maturation period, crypt cells express the intestinal brush border membrane Na/phosphate co-transporter.

The target of data set [4] is T1, intestinal BBM Na/phosphate co-transporter (Oryctolagus cuniculus, UniProt G1SIP4).
T1 sequence (G1SIP4 25-715): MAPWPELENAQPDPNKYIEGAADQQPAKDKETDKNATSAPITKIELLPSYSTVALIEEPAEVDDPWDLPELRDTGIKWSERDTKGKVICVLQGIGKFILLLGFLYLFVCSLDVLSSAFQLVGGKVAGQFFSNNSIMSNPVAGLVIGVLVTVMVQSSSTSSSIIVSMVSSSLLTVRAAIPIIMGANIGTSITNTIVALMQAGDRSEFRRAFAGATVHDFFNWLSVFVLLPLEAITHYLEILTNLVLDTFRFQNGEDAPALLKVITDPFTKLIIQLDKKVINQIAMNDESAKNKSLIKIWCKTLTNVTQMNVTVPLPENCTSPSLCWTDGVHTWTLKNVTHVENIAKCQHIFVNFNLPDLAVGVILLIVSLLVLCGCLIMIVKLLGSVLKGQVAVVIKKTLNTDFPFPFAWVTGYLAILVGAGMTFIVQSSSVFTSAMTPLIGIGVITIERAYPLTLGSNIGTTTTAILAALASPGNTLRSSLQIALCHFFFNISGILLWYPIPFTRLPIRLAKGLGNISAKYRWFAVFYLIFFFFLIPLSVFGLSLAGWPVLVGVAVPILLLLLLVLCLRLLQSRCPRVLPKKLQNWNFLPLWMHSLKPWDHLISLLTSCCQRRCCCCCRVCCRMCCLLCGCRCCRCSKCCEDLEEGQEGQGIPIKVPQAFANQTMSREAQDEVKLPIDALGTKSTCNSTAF

For data set [5], the target named is T2, intestinal Na/phosphate co-transporter (Oryctolagus cuniculus, UniProt G1SIP4).
T2 sequence (G1SIP4 1-715): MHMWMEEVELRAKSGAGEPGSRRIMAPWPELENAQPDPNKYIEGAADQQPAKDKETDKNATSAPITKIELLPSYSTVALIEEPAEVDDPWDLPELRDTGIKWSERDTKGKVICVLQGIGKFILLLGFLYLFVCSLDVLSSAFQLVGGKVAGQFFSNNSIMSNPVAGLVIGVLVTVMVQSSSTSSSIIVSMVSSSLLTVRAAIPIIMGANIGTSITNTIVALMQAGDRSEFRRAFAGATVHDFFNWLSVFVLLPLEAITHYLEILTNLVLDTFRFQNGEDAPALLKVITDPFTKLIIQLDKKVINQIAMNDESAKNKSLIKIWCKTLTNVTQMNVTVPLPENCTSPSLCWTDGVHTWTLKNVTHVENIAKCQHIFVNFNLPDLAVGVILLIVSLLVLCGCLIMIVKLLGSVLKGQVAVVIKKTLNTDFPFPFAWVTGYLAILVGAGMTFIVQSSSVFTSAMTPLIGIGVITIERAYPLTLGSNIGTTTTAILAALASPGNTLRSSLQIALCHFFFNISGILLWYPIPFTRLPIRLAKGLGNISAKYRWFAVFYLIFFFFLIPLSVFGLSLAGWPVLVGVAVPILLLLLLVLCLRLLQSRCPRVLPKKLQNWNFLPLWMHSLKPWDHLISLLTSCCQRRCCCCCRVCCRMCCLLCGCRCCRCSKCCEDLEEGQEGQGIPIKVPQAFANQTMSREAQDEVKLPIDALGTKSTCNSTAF
In words: Na-dependent [32P]phosphate uptake by rabbit intestinal brush border membrane (BBM) vesicles.

Where [6] appears, read: 10 μM [3H]2′-PP in water for 2 weeks, then removed.

As for `O=C(CCc1ccc(O)cc1)c1c(O)cc(O)cc1OP(=O)(O)O`, the “water consumption relative to normal” value in data set [1] (5 μM or higher concentrations of 2′-PP, first 4 days of the study) is reported as 2-4 times. Besides, the Serum calcium entry in data set [1] (2′-PP concentrations of 5 μM and higher) is reported as “significant decrease”. This molecule showed a Serum phosphate in data set [1] (after 2 weeks at 25 μM 2′-PP in drinking water) of 1.2 mM. In addition, the Serum phosphate in data set [1] (after 2 weeks on 1 μM 2′-PP in drinking water) stood at 1.8 mM. In data set [2] (after 4 weeks on [3H]2′-PP), the “radioactivity in the urine, kidney, or the liver” value is “No measurable radioactivity”. Moreover, the “permeation across the intestinal membrane” value in data set [2] (at the concentrations tested) is reported as “relatively impermeant”. The “2′-PP half-life (turnover time)” value in data set [2] (crude estimate from radioactivity in the stool after [3H]2′-PP was discontinued) was 12 ± 1 h. In addition, in data set [3] (setting [6]), the “apparent half-time to return to normal serum phosphate levels” value is listed as “approximately 3 days” and the “time for serum phosphate to return to normal (control) level after withdrawal” value was “five”. In addition, the inhibition at 10 µM in data set [3] (Rattus norvegicus, 10 μM 2′-PP administered daily, read-out: inhibition of the Na/phosphate co-transporter in vivo) is about 100%. In addition, in data set [4], the “2′-PP bound (kinetic analysis of trace B)” value is reported as 8.5 pmoles 2′-PP bound/mg protein, the “2′-PP bound at infinite osmotic strength” value is recorded as 8±0.6 pmoles of 2′-PP bound/mg protein, the “2′-PP bound in the absence of Na” value was 0.12±0.005 pmoles 2′-PP bound/mg protein and the “Hill coefficient nH of Na effect on 2′-PP binding” value is 1.9±0.25. Besides, in data set [4], the “[3H]2′-PP binding sites” value was 9 pmoles [^3H]2′-PP bound/mg protein, the “apparent K0.5 for Na (Na concentration at 50% 2′-PP bound)” value came to 23 ± 3 mM and the “transport by the Na/phosphate co-transporter” value is reported as “not transported”. The molecule further had an inhibition constant (Ki) in data set [5] of 590 ± 80 nM. Further, in data set [5] (Dixon plot, with respect to phosphate), the “type of inhibition of Na-dependent phosphate uptake” value is recorded as “competitive with respect to phosphate”. Moreover, the “change in apparent k0.5 for inhibition of Na-dependent [32P]phosphate uptake after pre-incubation with Ca-BBM” value in data set [5] (incubations of up to 10 minutes at 23° C.) was “no measurable change”.
